Entries after “also recorded” stand apart in the source; their conditions may differ. Where a SMILES comes first, the peptide text is derived from it. [ ]: non-standard residue; d: D form. The star is where a group is joined. Propanoyl(3-cHex) = O=C(CCC1CCCCC1)*; Orn = NCCC[C@H](N)C(=O)O; Dab = NCC[C@H](N)C(=O)O; Dap = NC[C@H](N)C(=O)O
How the values were obtained:
[1] = Brain delivery upon intranasal administration to a mouse; format: in vivo; conditions: ddY male mouse, 200 μg/5 μL intranasal, after 5 minutes; compared to CPN-116
Protocol: Peptide solution (200 μg/5 μL) was administered to the nasal cavity of a ddY male mouse. After 5 minutes, the animal was sacrificed and the brain tissues were collected. According to the LC/MS analysis, concentration of the peptide in plasma and brain was analyzed, and the ratio of concentration in brain compared to concentration in plasma was analyzed. The LC/MS analysis was carried out under the same conditions as above.

mNMUR2 = target: T1, mNMUR2 (Mus musculus, UniProt Q8BZ39); experiment: In vitro agonist activity for mouse neuromedin U receptor (intracellular calcium, Fluo-4, transfected HEK293 cells); format: cell-based; conditions: at a concentration of 100 nM, versus mNMUR1
T1 construct: expressed in transfected cells; host or cells: HEK293 cells (transient transfection with FuGENE6)
Protocol: For CPN-219 which has been synthesized in Synthesis Example 1, evaluation of the agonist activity for type 1 and type 2 mouse neuromedin U receptor (mNMUR1 and mNMUR2) was carried out according to the following method.
HEK293 cells derived from human embryonic kidney were cultured in a 5% (v/v) CO2 incubator at 37° C. by using DMEM-high glucose (GIBCO (registered trademark), Thermo Fisher Scientific Inc.) medium containing 10% (v/v) FCS.
Cells were sown on a 100 mm dish at 5.0×10^5 cells (10 mL DMEM+10% FBS), and then cultured for 18 hours. After the culture, by using FuGENE6 (Promega Corporation), the cultured cells were transfected with an expression plasmid which encodes mNMUR1 or mNMUR2 (2.5 μg). The cells were cultured for 18 hours. […]
On the next day, 100 μL of Fluo-4 AM (Promega Corporation) solution as a fluorescent indicator of intracellular calcium concentration was added to each well, in which the solution has been prepared such that it has the final concentration of 4 μM in assay buffer (HBSS, 10 mM HEPES, 2.5 mM probenecid, 1% FCS: pH 7.4). After culture for 40 minutes at 37° C., the cells were washed 4 times with the assay buffer and set in a fluorometric imaging plate reader (Molecular Devices, LLC.). […]

[2] = Pharmacokinetics of peptides in rat after administration via jugular vein; format: in vivo; conditions: Wistar rat, 500 μg/200 μL via jugular vein, 1 to 240 minutes; compared to CPN-116
Protocol: The peptide solution (500 μg/200 μL) was administered via jugular vein of a Wistar rat. After arbitrary time period (1 to 240 minutes), blood was taken from the femoral artery which has been subjected to cannulation in advance. According to the LC/MS analysis, pharmacokinetics of the peptide was analyzed. The LC/MS analysis was carried out under the same conditions as above.

hNMUR2 = target: T2, hNMUR2 (Homo sapiens, UniProt Q9GZQ4); experiment: In vitro agonist activity for human neuromedin U receptor (intracellular calcium, Fluo-4, CHO cells stably expressing the receptor); format: cell-based; conditions: at a concentration of 100 nM; versus hNMUR1; selective = relative agonist activity for NMUR1 18% or less at 1000 nM and for NMUR2 48% or more at 100 nM
T2 construct: expressed in transfected cells
Protocol: For CPN-219 which has been synthesized in Synthesis Example 1, evaluation of the agonist activity for type 1 and type 2 human neuromedin U receptor (hNMUR1 and hNMUR2) was carried out according to the following method.
CHO cells derived from Chinese hamster ovary which stably express hNMUR1 or hNMUR2 were cultured in a 5% (v/v) CO2 incubator at 37° C. by using MEM alpha (GIBCO (registered trademark), Thermo Fisher Scientific Inc.) medium containing 1 mg/mL G418 (NACALAI TESQUE, INC.), 10% (v/v) fetal bovine serum (FCS) and nucleosides (adenosine 10 mg/L, cytidine 10 mg/L, guanosine 10 mg/L, uridine 10 mg/L, 2′-deoxyadenosine 10 mg/L, 2′-deoxycytidine hydrochloride 11 mg/L, 2′-deoxyguanosine 10 mg/L, thymidine 10 mg/L).
The CHO cells were sown on a 96 well black-walled plate with clear bottom (Iwaki: AGC TECHNO GLASS CO., LTD.) at 2.0×10^4 cells per well (150 μL DMEM+10% (v/v) FBS), and then cultured for 18 hours.
After the culture, 100 μL of Fluo-4 AM (Promega Corporation) solution as a fluorescent indicator of intracellular calcium concentration was added to each well, in which the solution has been prepared such that it has the final concentration of 4 μM in assay buffer (HBSS, 10 mM HEPES, 2.5 mM probenecid, 1% (v/v) FCS: pH 7.4). After culture for 40 minutes at 37° C., the cells were washed 4 times with the assay buffer and set in a fluorometric imaging plate reader (Molecular Devices, LLC.).
The peptide as a test sample was dissolved by using dimethyl sulfoxide (DMSO) such that the stock solution is present at 20 mM, and then it was stored at 4° C. One hour before addition to the cells, by using an assay buffer added with 0.05% (v/v) bovine serum albumin (BSA) and […] Triton (registered trademark) X-100, preparation to arbitrary final concentration was made (10^−12 to 10^−6 M), and the fluorescence based on the activity of recruiting intracellular calcium by the peptide (i.e., agonist activity) was measured by using a fluorometric imaging plate reader.

ddy male mouse [3] = experiment: Suppression of body weight gain and food intake upon intranasal administration to a mouse; format: in vivo; conditions: 64 μg or 213 μg once intranasally, Day 1 to 5, versus physiological saline
Protocol: CPN-219, each dissolved at 64 μg or 213 μg in physiological saline (5 μL), was administered once to the nasal cavity of a ddy male mouse under anesthetization. As a control, physiological saline (5 μL) was administered once to the nasal cavity. For each administration group, the body weight of a mouse and food intake amount were measured immediately before the administration, each of Day 1 to 5 from immediately after the administration.
The body weight of a mouse was 29.0±0.83 g for the group with intranasal administration of 64 μg, or 27.7±1.29 g for the group with intranasal administration of 213 μg.

ddy male mouse [4] = experiment: Suppression of increase in prolactin concentration in blood under restraint stress; format: in vivo; conditions: 200 μg/5 μL intranasal, restraint stress 20 minutes, ELISA
Protocol: Peptide solution (200 μg/5 μL) or physiological saline (5 μL) was administered to the nasal cavity of a ddY male mouse. After 20 minutes, restraint stress (i.e., addition to the inside of a tube) was applied for 20 minutes and blood was taken by cutting off the animal head. Then, the PLT concentration in plasma was analyzed by using Mouse Prolactin DuoSet ELISA (R&D systems).
Furthermore, for a ddY male mouse which has not been administered with the peptide solution (200 μg/5 μL) or physiological saline (5 μL), and also not applied with any stress, the PLT concentration in plasma was analyzed in the same manner as above.

[5] = Stability in rat plasma (LC/MS); format: in vitro ADME; conditions: 37° C.
Protocol: Peptide solution was added to rat plasma such that the final peptide concentration is 50 μg/mL, and then incubated for arbitrary time period (0.5 to 6 hours) at 37° C. After the arbitrary time period, sampling was carried out and high performance liquid chromatography mass spectrometry (LC/MS) was performed under the following conditions followed by stability analysis.
LC/MS System: LC-MS2020 (SHIMADZU CORPORATION)
Column: TSKgel ODS-100V (Tosoh Corporation, 3.0 μm, 2.0 mm×75 mm)
Mobile layer: 0.1% trifluoroacetic acid (pH 2.5):acetonitrile=2:1
Column temperature: 40° C.
Detection: ESI^+, m/z=425.

ddy male mouse [6] = experiment: Fluctuation in corticosterone concentration in blood; format: in vivo; conditions: 200 μg/5 μL intranasal, after 5 minutes
Protocol: Peptide solution (200 μg/5 μL) or physiological saline (5 μL) was administered, either intranasally or peritoneally, to a ddY male mouse. After 5 minutes, blood was taken from the caval vein, and corticosterone concentration in plasma was analyzed according to the LC/MS analysis. Furthermore, as a control, without administering the peptide solution (200 μg/5 μL) or physiological saline (5 μL), blood was taken […] from the caval vein, and corticosterone concentration in plasma was analyzed according to the LC/MS analysis. The LC/MS analysis was carried out under the same conditions as above.

[7] = Stability in phosphate buffer solution (HPLC recovery rate); format: physicochemical
Protocol: Peptide solution was prepared (1 mL) by using a 100 mM phosphate buffer solution (pH 7.4) so as to have the final concentration of 1 mM, and then the peptide solution was incubated for arbitrary time period (1 to 72 hours) in a water bath at 37° C. After the arbitrary time period, sampling was carried out and 20 μL of injection into high performance liquid chromatography (HPLC) (column: COSMOSIL (registered trademark) Cholester Packed Column 4.6 mmI.D.×150 mm; gradient: % B 25-35, 30 min [A: H2O-0.1% (v/v) TFA; B: MeCN]; flow rate: 1.0 mL/min; measurement wavelength: 220 nm) was made. Then, by taking the obtained area value as an indicator, the stability was analyzed from the recovery rate (%) of the compound.

[8] = 2 hours, read-out: recovery rate in rat plasma after 2 hours
[9] = 100 mM phosphate buffer solution pH 7.4, 37° C., after 48 hours

T2 sequence (Q9GZQ4 whole entry): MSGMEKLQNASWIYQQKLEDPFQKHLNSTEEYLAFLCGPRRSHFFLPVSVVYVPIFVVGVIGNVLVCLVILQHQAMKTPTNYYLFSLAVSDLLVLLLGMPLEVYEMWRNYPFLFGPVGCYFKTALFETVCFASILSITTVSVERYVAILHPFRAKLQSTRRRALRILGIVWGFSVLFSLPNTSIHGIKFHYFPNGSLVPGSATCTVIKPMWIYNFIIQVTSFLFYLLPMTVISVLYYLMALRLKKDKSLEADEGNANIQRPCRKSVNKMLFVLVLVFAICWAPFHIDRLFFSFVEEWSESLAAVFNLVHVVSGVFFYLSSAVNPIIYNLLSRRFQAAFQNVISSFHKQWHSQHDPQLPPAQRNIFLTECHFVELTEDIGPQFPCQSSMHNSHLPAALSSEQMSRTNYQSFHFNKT
T1 sequence (Q8BZ39 whole entry): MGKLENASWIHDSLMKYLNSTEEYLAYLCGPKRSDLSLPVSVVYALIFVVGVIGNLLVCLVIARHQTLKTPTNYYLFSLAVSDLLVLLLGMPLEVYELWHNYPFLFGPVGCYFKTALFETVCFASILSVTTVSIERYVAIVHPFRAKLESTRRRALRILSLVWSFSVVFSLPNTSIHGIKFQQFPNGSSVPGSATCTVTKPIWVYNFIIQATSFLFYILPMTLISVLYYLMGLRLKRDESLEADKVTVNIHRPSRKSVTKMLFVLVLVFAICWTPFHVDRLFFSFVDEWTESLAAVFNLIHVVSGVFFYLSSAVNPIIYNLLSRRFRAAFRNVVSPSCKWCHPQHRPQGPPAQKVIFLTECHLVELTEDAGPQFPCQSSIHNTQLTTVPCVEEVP

CC(C)C[C@H](NC(=O)CCC1CCCCC1)C(=O)N[C@@H](CC(C)C)C(=O)N[C@@H](CCN)C(=O)N1CCC[C@H]1C(=O)N[C@@H](CCCNC(=N)N)C(=O)N[C@@H](CC(N)=O)C(N)=O [CPN-219, 3-Cyclohexylpropionyl-Leu-Leu-Dbu-Pro-Arg-Asn-NH2] ({Propanoyl(3-cHex)}-LL[Dab]PRN-NH2)
brain delivery (ratio of concentration in brain to concentration in plasma; transfer to olfactory bulb) [1]: more favorable transfer to an olfactory bulb | mNMUR2 selective agonist activity (mNMUR2): exhibited the mNMUR2 selective agonist activity | pharmacokinetics in rat blood [2]: more favorable pharmacokinetics in rat blood | hNMUR2 selective agonist activity (hNMUR2): exhibited the NMUR2 selective agonist activity | body weight gain of a mouse (ddy male mouse [3]): significantly suppressed the body weight gain | food intake of a mouse (ddy male mouse [3]): significantly suppressed | prolactin secretion (PLT concentration in plasma) (ddy male mouse [4]): suppresses the prolactin secretion | recovery at 2 hours, 50 μg/mL [5, 8]: ≥ 80% | recovery at 6 hours, 50 μg/mL ([5]; 6 hours, read-out: recovery rate in rat plasma after 6 hours): ≥ 60% | corticosterone concentration in blood (ddy male mouse [6]): significantly increased the corticosterone concentration in blood

3-Cyclohexylpropionyl-Leu-Leu-Dpr-Pro-Arg-Asn-NH2 ({Propanoyl(3-cHex)}-LL[Dap]PRN-NH2) [CPN-220]
hNMUR2 selective agonist activity (hNMUR2): did not exhibit the hNMUR2 selective agonist activity; also recorded: does not show the hNMUR2 selective agonist activity | converted to CPN-116 in phosphate buffer solution [7, 9]: ≥ 25%

3-Cyclohexylpropionyl-Leu-Leu-Orn-Pro-Arg-Asn-NH2 ({Propanoyl(3-cHex)}-LL[Orn]PRN-NH2; SMILES CC(C)C[C@H](NC(=O)CCC1CCCCC1)C(=O)N[C@@H](CC(C)C)C(=O)N[C@@H](CCCN)C(=O)N1CCC[C@H]1C(=O)N[C@@H](CCCNC(=N)N)C(=O)N[C@@H](CC(N)=O)C(N)=O) [CPN-221]
hNMUR2 selective agonist activity (hNMUR2): exhibited the hNMUR2 selective agonist activity

CC(C)C[C@H](NC(=O)CCC1CCCCC1)C(=O)N[C@@H](CC(C)C)C(=O)N[C@@H](CN)C(=O)N1CCC[C@H]1C(=O)N[C@@H](CCCNC(=N)N)C(=O)N[C@@H](CC(N)=O)C(N)=O [CPN-116, 3-Cyclohexylpropionyl-Leu-Leu-Dpr-Pro-Arg-Asn-NH2] ({Propanoyl(3-cHex)}-LL[Dap]PRN-NH2)
recovery at 2 h, 50 μg/mL [5, 8]: ≤ 3% | converted to CPN-220 in phosphate buffer solution [7, 9]: ≥ 70% | chemical stability (in words) ([7]; 100 mM phosphate buffer solution, conclusion from Test Examples 11 and 12): chemically unstable

Reference: patent US10550153B2, “Peptide or pharmaceutically acceptable salt thereof, or prodrug thereof” (Tokyo University of Pharmacy & Life Sciences, priority 2017, dated 2020)
